Here are results for 4 substances from patent US6376211B1, “Agents and methods for inhibiting F1/F0 ATPase” (XOMA Technology Ltd., priority 1999, dated 2002).

One assay relates to E. coli. The assay is described as follows: Metabolic oxidation-reduction indicator dye Alamar Blue assay. Type of assay: cell-based. As for the experimental part:
(§1) The effect of antibacterial BPI protein products on the activity of bacterial ATP synthase as measured by a metabolic oxidation-reduction indicator dye and a membrane potential indicator dye was determined as described in Example 2 of U.S. Provisional Application Ser. No. 60/143,290 filed Jul. 12, 1999 and corresponding co-owned, concurrently filed U.S. application Ser. No. 09/543,955, both of which are incorporated herein by reference and Example 9 of U.S. Provisional Application Ser. No. 60/143,485 filed Jul. 12, 1999 and corresponding U.S. application Ser. No. 09/404,926 filed Sep. 24, 1999 and International Application No. PCT/US99/22361 filed Sep. 24, 1999, all of which are incorporated herein by reference.

For assay [1], the target named is T1, mammalian mitochondrial ATP synthase.
T1 construct: ATP synthase enzymic activity in mitochondrial preparations; from tissue; host or cells: mouse liver mitochondria, deoxycholate-lysed membrane pellet
The assay is described as follows: Phosphatase activity of ATP synthase in mitochondrial membrane preparations (mouse liver). Type of assay: biochemical. Conditions: 1.35 μM rBPI21, 0.082 and 0.482 μM XMP.391, 0.076 and 0.553 μM XMP.416. As for the experimental part: The effect of BPI protein products on ATP synthase enzymic activity in mitochondrial preparations was evaluated. Mitochondrial membrane preparations were prepared as follows. Male laboratory mice (Mus musculus) were sacrificed by cervical dislocation and their livers were immediately excised. The gall bladder and connective tissues were removed and the livers were washed in 0.25 M sucrose. Wet liver weight was determined after blotting the washed liver on absorbent paper. All subsequent steps of the fractionation procedure were performed on ice. The weighted livers were then homogenized with a Potter Elvehjem tissue homogenizer and six passes of a teflon pestle in 9 volumes of 0.25 M sucrose with protease inhibitors (2 μg/mL pepstatin A, 2 μg/mL aprotinin and 1 mM phenylmethylsulfonyl fluoride (PMSF). Liver homogenates were then centrifuged in a Beckman (Fullerton, Calif.) J2-21 centrifuge for 10 minutes at 600×g. The 600×g pellet (nuclei, unbroken cells and connective tissue) was discarded and the supernatant was subjected to further centrifugation. The 600×g supernatant was centrifuged at 7000×g for 10 minutes to yield a crude mitochondrial pellet.
Crude mitochondria were resuspended in 3 volumes of the original liver weight with 0.25 M sucrose and centrifuged at 7000×g for 10 minutes. The supernatant was discarded and the procedure was repeated. […]

In assay [2] the test system is whole cells. The assay is described as follows: Metabolic oxidation-reduction indicator dye (Alamar Blue) assay of whole cells (general description). The format is cell-based. Conditions: at a less than fully cytotoxic concentration. The text has this: (§2) The effect of test compounds on ATP synthase activity of whole cells can also optionally be assayed using any membrane potential indicator dye or metabolic oxidation-reduction indicator dye known in the art. See Loew, Chapter 8 in Biomembrane Electrochemistry, Blank and Vodyanoy, eds., American Chemical Society, Washington, DC (1994), pages 151-173. Particularly preferred dyes are membrane potential dyes such as DiOC6(3), JC-1, rhodamine 123, or MitoTracker® reduced dyes [Molecular Probes, Eugene, Oreg.]. […] Other preferred dyes are metabolic oxidation-reduction indicator dyes such as Alamar Blue™ [AccuMed Int'l, Westlake, Ohio]. […] See U.S. Provisional Application Ser. No. 60/143,290 filed Jul. 12, 1999 and corresponding co-owned, concurrently filed U.S. application Ser. No. 09/543,955, both of which are incorporated herein by reference and U.S. Provisional Application Ser. No. 60/143,485 filed Jul. 12, 1999 and corresponding U.S. application Ser. No. 09/404,926 filed Sep. 24, 1999 and International Application No. PCT/US99/22361 filed Sep. 24, 1999, all of which are incorporated herein by reference. Iterative screening for compound selection may employ one or combination of assays for testing.

Another assay has as its target E. coli ATP synthase. Conditions: bacterial membrane preparations; about ... and higher.
The subject of assay [3] is E. coli O111:B4. The assay is described as follows: Membrane potential indicator dye DiOC6(3) assay. The format is cell-based. As for the experimental part:
as §1

For assay [4], the system named is E. coli O111:B4. The assay is described as follows: In vitro bactericidal activity. The format is cell-based.
Assay [5] concerns whole cells. The assay is described as follows: Membrane potential indicator dye assay of whole cells (general description). Type of assay: cell-based. Conditions: retention of the dye notwithstanding onset of loss of viability at the same concentration.
Source text: as §2

The subject of the next assay is bacterial growth. The note with it: cited from earlier work.

Description for E. coli ATP synthase: The effect of antibacterial BPI protein products on the ATP synthesis activity of an E. coli ATP synthase was determined as follows. Bacterial membranes were prepared as follows. A 400 mL culture of E. coli was grown overnight in TSB at 37° C. with shaking. Cells were harvested by centrifugation for 10 minutes at 1000×g, followed by washing with 20 mL of PBS and recentrifugation. Cells were resuspended in 4 ml of 25 mM HEPES, pH 7.6, 0.1 M KCl, 0.1 M EDTA, 12.5 mM MgCl2, 10% glycerol, 0.1% NP40. Then 50 μl of lysozyme (50 mg/ml) was added and the cells were incubated for 30 minutes on ice. Cells were disrupted by sonication in 3×30-second pulses. Cells were placed on ice between pulses. DNAse I was added to a 10 μg/mL final concentration (GIBCO Life Technologies, Gaithersburg, Md.) and the homogenate was left on ice for 30 minutes. […] The final pellet was resuspended in 2 mL 10 mM Tris-HC1, pH 7.0, 0.1 mM EDTA, 20% glycerol and protein concentration was determined by standard Bradford assay.
In a 96 well plate (Microlite 1, DYNEX Technologies, Chantilly Va.), 25 μg bacterial membranes were diluted into 100 μl of 55.5 mM Tris-HC1, pH 7.8, 0.222 mM MgSO4 plus the compound to be tested (XMP.391 (SEQ ID NO: 4) and rBPI21 at concentrations ranging from 40 μg/mL to 0.625 μg/mL). […] Assays were read in Endpoint mode with 30 reads per well.

On to “XMP.391: BPI-derived peptide, SEQ ID NO: 4 (KVGWLIQLFHKK)”, for which, in the assay on E. coli, the “apparent metabolic activity relative to untreated controls” value is listed as “apparent increased metabolic activity”. For the same substance, the “inhibition of phosphatase activity of ATP synthase” value in assay [1] is given as “inhibited the phosphatase activity”. In addition, the “pattern of metabolic oxidation-reduction activity relative to control cells” value with whole cells [2] is given as “increased metabolic oxidation-reduction activity relative to control cells”. In the assay with E. coli ATP synthase, the “concentration at which synthesis of ATP from ADP is inhibited in a dose-dependent manner” value was no less than 1 µg/mL.
With “XMP.416: BPI-derived peptide, SEQ ID NO: 5 (KWLIQLFHKK)”, the “inhibition of phosphatase activity of ATP synthase” value in assay [1] is reported as “inhibited the phosphatase activity”. Further, in the assay on whole cells [2], the “pattern of metabolic oxidation-reduction activity relative to control cells” value was “increased metabolic oxidation-reduction activity relative to control cells”.
Regarding “XMP.365: BPI-derived peptide, SEQ ID NO: 3; structure described in U.S. Pat. No. 5,858,974 (KWLIQLFHKK)”, the “apparent metabolic activity relative to untreated controls” value in the assay with E. coli is listed as “apparent increased metabolic activity”. In addition, the “accumulation and retention of membrane potential dye” value in the assay with E. coli O111:B4 [3] is “produced an accumulation and retention of the dye despite cell death”. The “in vitro bactericidal activity” value in the assay on E. coli O111:B4 [4] was “has in vitro bactericidal activity against this strain”. The “pattern of accumulation of membrane potential dye in cells” value in the assay on whole cells [5] is listed as “accumulation in cells of membrane potential dye in a peptide concentration-dependent manner”. Also, the “pattern of metabolic oxidation-reduction activity relative to control cells” value in the assay with whole cells [2] is recorded as “increased metabolic oxidation-reduction activity relative to control cells”.
Take gentamicin: the “concentration required to produce a therapeutic effect” value with bacterial growth was 8 µg/mL.
